Measured values: US6156700A, “3-(1,2-Benzisothiazol- and isoxazol-5-yl)-2,4(1H,3H)-pyrimidinedione or thione and 3-(1,2-benzisothiazol- and isoxazol-5-yl)-4(3H)-pyrimidinone or thione herbicidal agents” (American Cyanmid Company, priority 1998, dated 2000)
Where “and” joins values, the source holds several entries; their conditions need not be identical. Identical values can stand only once.

Experiments:
ECHCG = experiment: Postemergence herbicidal evaluation; type: in vivo
ORYSAT = experiment: Postemergence herbicidal evaluation; type: in vivo, Oryza sativa
ZEAMX [1] = experiment: Preemergence herbicidal evaluation; type: in vivo; parameters: scale not given here
AMBEL [2] = experiment: Preemergence herbicidal evaluation; type: in vivo; parameters: scale not given here
IPOSS = experiment: Preemergence herbicidal evaluation; type: in vivo; parameters: scale not given here
SETVI [3] = experiment: Preemergence herbicidal evaluation; type: in vivo; parameters: scale not given here
GALAP [4] = experiment: Preemergence herbicidal evaluation; type: in vivo; parameters: scale not given here
ABUTH = experiment: Preemergence herbicidal evaluation; type: in vivo; parameters: scale not given here
CHEAL [5] = experiment: Preemergence herbicidal evaluation; type: in vivo; parameters: scale not given here
TRZAWR = experiment: Preemergence herbicidal evaluation; type: in vivo; parameters: scale not given here
CASOB [6] = experiment: Preemergence herbicidal evaluation; type: in vivo; parameters: scale not given here
GALAP [7] = experiment: Postemergence herbicidal evaluation; type: in vivo
ZEAMX [8] = experiment: Postemergence herbicidal evaluation; type: in vivo
CASOB [9] = experiment: Postemergence herbicidal evaluation; type: in vivo
SETVI [10] = experiment: Postemergence herbicidal evaluation; type: in vivo
CHEAL [11] = experiment: Postemergence herbicidal evaluation; type: in vivo
GLXMA = experiment: Preemergence herbicidal evaluation; type: in vivo
Experimental: The preemergence and postemergence herbicidal properties of certain compounds of the present invention are compared with certain compounds disclosed in U.S. Pat. Nos. 5,484,763 and 5,523,278. The evaluations are performed as described in Examples 185 and 186. Data in Tables V and VI are reported by the compound number given in Example 185 for the compounds of this invention or by comparative compound letter for the compounds disclosed in U.S. Pat. Nos. 5,484,763 and 5,523,278.

AMBEL [12] = experiment: Postemergence herbicidal evaluation; type: in vivo

Cc1nsc2ccc(-n3c(=O)cc(C(F)(F)F)n(C)c3=O)cc12 [Compound 6, 1-Methyl-3-(3-methyl-1,2-benzisothiazol-5-yl)-6-(trifluoromethyl)-2,4(1H,3H)-pyrimidinedione]
herbicidal effect rating (ECHCG; 0.0313-0.0320 kg/ha): 1.0 and 2.0 | herbicidal effect rating (ECHCG; 0.0625-0.0640 kg/ha): 3.0 and 1.5 and 2.0 | herbicidal effect rating (ECHCG; 0.1250 kg/ha): 7.0 | herbicidal effect rating (ECHCG; 0.2500 kg/ha): 6.0 | herbicidal effect rating (ECHCG; 0.5000 kg/ha): 7.0 | herbicidal effect rating (ORYSAT; 0.0313-0.0320 kg/ha): 1.5 and 1.0 | herbicidal effect rating (ORYSAT; 0.0625-0.0640 kg/ha): 1.0 and 1.8 and 1.5 | herbicidal effect rating (ORYSAT; 0.1250 kg/ha): 4.5 | herbicidal effect rating (ORYSAT; 0.2500 kg/ha): 5.0 | herbicidal effect rating (ORYSAT; 0.5000 kg/ha): 5.0 | herbicidal effect rating (ZEAMX [1]; 0.0313-0.0320 kg/ha): 4.2 and 7.5 and 5.3 | herbicidal effect rating (ZEAMX [1]; 0.0620-0.0630 kg/ha): 8.0 and 6.0 | herbicidal effect rating (ZEAMX [1]; 0.1250 kg/ha): 6.5 | herbicidal effect rating (ZEAMX [1]; 0.2500 kg/ha): 9.0 | herbicidal effect rating (ZEAMX [1]; 0.5000 kg/ha): 9.0 | herbicidal effect rating (AMBEL [2]; 0.0313-0.0320 kg/ha): 7.4 and 9.0 and 4.5 | herbicidal effect rating (AMBEL [2]; 0.0620-0.0630 kg/ha): 9.0 and 6.0 | herbicidal effect rating (AMBEL [2]; 0.1250 kg/ha): 7.0 | herbicidal effect rating (AMBEL [2]; 0.2500 kg/ha): 9.0 | herbicidal effect rating (AMBEL [2]; 0.5000 kg/ha): 9.0 | herbicidal effect rating (IPOSS; 0.0156-0.0160 kg/ha): 7.5 | herbicidal effect rating (IPOSS; 0.0313-0.0320 kg/ha): 7.5 and 7.0 | herbicidal effect rating (IPOSS; 0.0620-0.0630 kg/ha): 7.0 | herbicidal effect rating (IPOSS; 0.1250 kg/ha): 9.0 | herbicidal effect rating (IPOSS; 0.2500 kg/ha): 9.0 | herbicidal effect rating (IPOSS; 0.5000 kg/ha): 9.0 | herbicidal effect rating (SETVI [3]; 0.0313-0.0320 kg/ha): 8.4 and 9.0 and 5.5 | herbicidal effect rating (SETVI [3]; 0.0620-0.0630 kg/ha): 9.0 and 6.0 | herbicidal effect rating (SETVI [3]; 0.1250 kg/ha): 9.0 | herbicidal effect rating (SETVI [3]; 0.2500 kg/ha): 9.0 | herbicidal effect rating (SETVI [3]; 0.5000 kg/ha): 9.0 | herbicidal effect rating (GALAP [4]; 0.0156-0.0160 kg/ha): 4.8 and 8.5 | herbicidal effect rating (GALAP [4]; 0.0313-0.0320 kg/ha): 5.3 and 8.5 and 9.0 | herbicidal effect rating (GALAP [4]; 0.0620-0.0630 kg/ha): 9.0 | herbicidal effect rating (GALAP [4]; 0.1250 kg/ha): 9.0 | herbicidal effect rating (GALAP [4]; 0.2500 kg/ha): 9.0 | herbicidal effect rating (GALAP [4]; 0.5000 kg/ha): 9.0 | herbicidal effect rating (ABUTH; 0.0313-0.0320 kg/ha): 9.0 and 4.5 | herbicidal effect rating (ABUTH; 0.0620-0.0630 kg/ha): 9.0 | herbicidal effect rating (ABUTH; 0.1250 kg/ha): 9.0 | herbicidal effect rating (ABUTH; 0.2500 kg/ha): 9.0 | herbicidal effect rating (ABUTH; 0.5000 kg/ha): 9.0 | herbicidal effect rating (CHEAL [5]; 0.0156-0.0160 kg/ha): 8.8 and 9.0 and 5.0 | herbicidal effect rating (CHEAL [5]; 0.0313-0.0320 kg/ha): 9.0 and 8.0 | herbicidal effect rating (CHEAL [5]; 0.0620-0.0630 kg/ha): 9.0 | herbicidal effect rating (CHEAL [5]; 0.1250 kg/ha): 9.0 | herbicidal effect rating (CHEAL [5]; 0.2500 kg/ha): 9.0 | herbicidal effect rating (CHEAL [5]; 0.5000 kg/ha): 9.0 | herbicidal effect rating (TRZAWR; 0.0156-0.0160 kg/ha): 3.0 and 3.5 | herbicidal effect rating (TRZAWR; 0.0313-0.0320 kg/ha): 5.6 and 6.5 and 6.3 | herbicidal effect rating (TRZAWR; 0.0620-0.0630 kg/ha): 7.0 and 8.3 | herbicidal effect rating (TRZAWR; 0.1250 kg/ha): 8.7 | herbicidal effect rating (TRZAWR; 0.2500 kg/ha): 8.0 | herbicidal effect rating (TRZAWR; 0.5000 kg/ha): 9.0 | herbicidal effect rating (CASOB [6]; 0.0313-0.0320 kg/ha): 6.0 and 9.0 and 4.5 | herbicidal effect rating (CASOB [6]; 0.0620-0.0630 kg/ha): 7.0 and 5.5 | herbicidal effect rating (CASOB [6]; 0.1250 kg/ha): 6.5 | herbicidal effect rating (CASOB [6]; 0.2500 kg/ha): 9.0 | herbicidal effect rating (CASOB [6]; 0.5000 kg/ha): 9.0 | herbicidal effect rating (GALAP [7]; 0.0625-0.0640 kg/ha): 9.0 and 5.0 | herbicidal effect rating (GALAP [7]; 0.1250 kg/ha): 9.0 | herbicidal effect rating (GALAP [7]; 0.2500 kg/ha): 9.0 | herbicidal effect rating (GALAP [7]; 0.5000 kg/ha): 9.0 | herbicidal effect rating (ZEAMX [8]; 0.0157-0.0160 kg/ha): 3.5 and 4.0 and 2.0 | herbicidal effect rating (ZEAMX [8]; 0.0313-0.0320 kg/ha): 3.8 and 4.3 and 3.5 | herbicidal effect rating (ZEAMX [8]; 0.0625-0.0640 kg/ha): 5.0 and 4.5 and 3.5 | herbicidal effect rating (ZEAMX [8]; 0.1250 kg/ha): 3.5 | herbicidal effect rating (ZEAMX [8]; 0.2500 kg/ha): 3.5 | herbicidal effect rating (ZEAMX [8]; 0.5000 kg/ha): 3.0 | herbicidal effect rating (CASOB [9]; 0.0157-0.0160 kg/ha): 0.0 | herbicidal effect rating (CASOB [9]; 0.0625-0.0640 kg/ha): 2.5 and 4.0 | herbicidal effect rating (CASOB [9]; 0.1250 kg/ha): 7.0 | herbicidal effect rating (CASOB [9]; 0.2500 kg/ha): 8.0 | herbicidal effect rating (CASOB [9]; 0.5000 kg/ha): 7.0 | herbicidal effect rating (SETVI [10]; 0.1250 kg/ha): 9.0 | herbicidal effect rating (SETVI [10]; 0.2500 kg/ha): 9.0 | herbicidal effect rating (SETVI [10]; 0.5000 kg/ha): 9.0 | herbicidal effect rating (CHEAL [11]; 0.0313-0.0320 kg/ha): 6.5 and 5.0 and 9.0 | herbicidal effect rating (CHEAL [11]; 0.0625-0.0640 kg/ha): 9.0 and 7.0 | herbicidal effect rating (CHEAL [11]; 0.1250 kg/ha): 9.0 | herbicidal effect rating (CHEAL [11]; 0.2500 kg/ha): 9.0 | herbicidal effect rating (CHEAL [11]; 0.5000 kg/ha): 9.0 | herbicidal effect rating (GLXMA; 0.0156-0.0160 kg/ha): 2.0 | herbicidal effect rating (GLXMA; 0.0313-0.0320 kg/ha): 2.0 | herbicidal effect rating (GLXMA; 0.0620-0.0630 kg/ha): 4.0 | herbicidal effect rating (GLXMA; 0.1250 kg/ha): 7.0 | herbicidal effect rating (GLXMA; 0.2500 kg/ha): 9.0 | herbicidal effect rating (GLXMA; 0.5000 kg/ha): 9.0 | herbicidal effect rating (AMBEL [12]; 0.0313-0.0320 kg/ha): 9.0 and 6.0 and 8.0 | herbicidal effect rating (AMBEL [12]; 0.0625-0.0640 kg/ha): 9.0 and 6.5 | herbicidal effect rating (AMBEL [12]; 0.1250 kg/ha): 9.0 | herbicidal effect rating (AMBEL [12]; 0.2500 kg/ha): 9.0 | herbicidal effect rating (AMBEL [12]; 0.5000 kg/ha): 9.0
